Experimental data: patent US20230257373A1, “QUORUM SENSING INHIBITORS AND METHODS OF USE” (priority 2020, published 2023)
“And” between values parts separate entries of the source, which are not always exact repeats. Equal values may be shown once. Read-outs that look alike come from different tables or passages of the source.

What was measured:
SmcR [1] = molecular target: T1, SmcR (Vibrio vulnificus, UniProt Q9L8G8); test: ITC analysis of SmcR interaction with inhibitors; type: binding, V. vulnificus
T1 sequence (Q9L8G8 entry or part of it): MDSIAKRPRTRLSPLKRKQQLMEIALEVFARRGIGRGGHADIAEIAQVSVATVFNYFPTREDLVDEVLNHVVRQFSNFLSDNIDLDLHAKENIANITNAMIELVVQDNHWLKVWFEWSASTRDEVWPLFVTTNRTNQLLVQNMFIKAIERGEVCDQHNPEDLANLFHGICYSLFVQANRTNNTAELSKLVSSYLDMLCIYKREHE
Source text: To test the validity of the modelling predictions for PTSP, we performed isothermal titration calorimetry (ITC) to determine the binding affinity of SmcR and LuxR for PTSP. […] We noted that PTSP binding to both LuxR and SmcR had lower entropy and enthalpy compared to SmcR binding to Qstatin. […] Thus, we conclude that the efficacy of PTSP inhibition in vivo in these two Vibrio species correlates to the binding affinity determined in vitro for these two proteins.
SmcR and LuxR were purified as described previously. EMSAs were conducted as described previously using oligonucleotides corresponding to the luxC and vvpE promoter sequences. ITC analysis was conducted using purified LuxR or His-tagged SmcR, each in gel-filtration buffer (25 mM Tris pH 7.5, 300 mM NaCl, 0.5 mM EDTA, 1 mM DTT, 2% DMSO). All molecules analyzed were diluted in the same buffer. The samples were degassed for 10 min by vacuum aspiration. Titrations were performed on a Nano-ITC (TA Instruments). […] Thermograms were analyzed using NanoAnalyze software with the independent binding model.

[2] = tested on: PluxC-gfp reporter in V. coralliilyticus; test: PluxC-gfp reporter in V. coralliilyticus strains
V. campbellii LuxR [3] = molecular target: T2, V. campbellii LuxR (Vibrio harveyi, UniProt P21308); test: E. coli dual-color bioassay (pKM699 LuxR, pJV064 reporter); type: cell-based; conditions: for Inhibition of LuxR in the E. coli bioassay (in words): GFP and mCherry reporters
T2 construct: expressed in transfected cells; host or cells: E. coli DH10B with pKM699 and reporter pJV064
T2 sequence (P21308 whole entry): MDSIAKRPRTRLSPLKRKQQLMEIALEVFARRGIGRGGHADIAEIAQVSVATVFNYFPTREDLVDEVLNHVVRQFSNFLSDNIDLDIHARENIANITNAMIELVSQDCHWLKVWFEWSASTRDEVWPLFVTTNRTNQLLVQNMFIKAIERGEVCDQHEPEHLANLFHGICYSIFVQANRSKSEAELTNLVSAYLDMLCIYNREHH
Source text: Previously, we developed a bioassay that consists of a dual-color fluorescent reporter plasmid that reports both LuxR activities: the luxCDABE promoter is activated by LuxR and drives expression of gfp, and the VIBHAR_05222 promoter is repressed by LuxR and drives expression of mCherry (van Kessel et al., 2013b) (FIG. 2A). We used this reporter plasmid in an E. coli strain that also contains a plasmid expressing LuxR from its native promoter.
A bioassay was developed to monitor LuxR function that consists of a dual-color reporter plasmid (pJV064) that reports both activities: the luxCDABE promoter is activated by LuxR and drives expression of gfp, and the 05222 promoter is repressed by LuxR and drives expression of mCherry (van Kessel, Ulrich et al. 2013). This reporter plasmid was used in an E. coli strain that also contains a plasmid (pKM699) expressing LuxR from its native promoter. E. coli cultures containing these two plasmids were grown at 30° C. in LB medium with chloramphenicol (10 μg/ml) and tetracycline (10 μg/ml) to select for the two plasmids. Compounds were added to the cultures at a range of concentrations, and the cultures were incubated for 16 hours shaking at 30° C.
The dual-promoter fluorescence reporter assays were performed using E. coli strain DH10B containing two plasmids: 1) plasmid pJV064 containing the PluxC fused to GFP and P05222fused to mCherry to assess LuxR transcriptional regulation, and 2) plasmid pKM699 expressing V. campbellii luxR under control of its native promoter or empty vector pLAFR2.

SmcR regulon = conditions: cited from earlier work
[4] = tested on: PluxC-gfp reporter in V. campbellii; test: PluxC-gfp reporter in V. campbellii strains; conditions: Vibrio campbellii
SmcR [5] = molecular target: T1, SmcR; conditions: Kim et al., 2018; cited from earlier work
[6] = tested on: PluxC-gfp reporter in V. parahaemolyticus; test: PluxC-gfp reporter in V. parahaemolyticus strains; conditions: Vibrio parahaemolyticus
[7] = tested on: PluxC-gfp reporter in V. vulnificus; test: PluxC-gfp reporter in V. vulnificus strains; conditions: Vibrio vulnificus
[8] = tested on: V. campbellii, V. parahaemolyticus, and V. vulnificus; conditions: cited from earlier work
V. campbellii = test: Growth of V. campbellii with inhibitor; type: cell-based; conditions: high concentrations
Source text: (§1) Many sulfonamide-containing compounds are known to target the folate synthesis pathway in bacteria and inhibit growth (bacteriostatic), and thus these “sulfa drugs” have been used as broad-spectrum antibiotics for decades (Hammoudeh et al., 2013, Roland et al., 1979). […] We also tested the stability of the inhibitors in bacterial cultures and the timing of the inhibitory effect.

V. campbellii LuxR [9] = molecular target: T2, V. campbellii LuxR; test: qRT-PCR and western blots in wild-type V. campbellii; type: cell-based
Source text: The Qstatin-treated regulon overlapped with the SmcR regulon by more than 50%, with similar gene expression fold-changes. […] This is important to note because LuxR and HapR proteins are known to autorepress their own expression. To test the effects of adding inhibitors to V. campbellii LuxR, we added 10A, 10B, and 10C to wild-type V. campbellii and used qRT-PCR and western blots to examine the effects on luxR transcript and protein levels. We also examined the transcript levels for luxC and 05222 genes that are directly activated or repressed by LuxR, respectively.
All PCR reactions were performed using Phusion HF polymerase (NEB). T4 polynucleotide kinase (T4 PNK) used in EMSAs and all other enzymes were purchased from NEB and used according to manufacturer's instructions. Site-directed mutagenesis for construction of plasmids expressing mutant proteins was carried out using the Agilent QuikChange II XL Site-Directed Mutagenesis Kit. All oligonucleotides were purchased from Integrated DNA Technologies (IDT).ALL plasmid constructs were confirmed by DNA sequencing (Eurofins). Cloning details for plasmids are available upon request. Western blot analysis was performed as previously described (van Kessel et al., 2013b), except that new anti-LuxR antibodies were generated through Cocalico against purified LuxR protein. In addition, the western blots were probed with anti-RpoB (Neoclone).
Then cells were induced with 50 μM IPTG and grown under the same conditions until cells reached an OD600 of approximately 1, at which 5 mL of cells were collected by centrifugation and frozen in liquid N2. RNA was extracted using a Trizol/chloroform extraction protocol previously described (Rutherford et al., 2011). Quantitative real-time PCR (qRT-PCR) was performed as previously described (Chaparian et al., 2016). Samples were normalized to the internal standard hfq gene. The ΔΔCT values were used to analyze data from three independent biological replicates. Symbols on graphs represent the mean values and error bars represent the standard deviations. All statistical analysis was performed with functions from GraphPad Prism version 8.

Vibrio strains = test: luxCDABE reporter across five Vibrio species; conditions: each Vibrio strain except V. cholerae
V. vulnificus = test: Growth of V. vulnificus with inhibitor; type: cell-based; conditions: high concentrations
Source text: as §1

[10] = read-out: Inhibition (IC50) of the PluxC-gfp reporter, Vcoral OCN 008
[11] = read-out: Inhibition (IC50) of the PluxC-gfp reporter, Vcoral OCN 014
[12] = read-out: IC50 in the bioassay (approximate)
[13] = ATCC25920, read-out: Inhibition (IC50) of the PluxC-gfp reporter, Vcamp ATCC 25920
[14] = read-out: Inhibition (IC50) of the PluxC-gfp reporter, Vcamp BB120
[15] = read-out: Inhibition (IC50) of the PluxC-gfp reporter, Vcamp HY01
[16] = read-out: Inhibition (IC50) of the PluxC-gfp reporter, Vpara 12-297/B
[17] = read-out: Inhibition (IC50) of the PluxC-gfp reporter, Vpara D4
[18] = read-out: Inhibition (IC50) of the PluxC-gfp reporter, Vpara RIMD 2210633
[19] = ATCC27562, read-out: Inhibition (IC50) of the PluxC-gfp reporter, Vvul ATCC 27562
[20] = read-out: Inhibition (IC50) of the PluxC-gfp reporter, Vvul CMPC6
[21] = read-out: Inhibition (IC50) of the PluxC-gfp reporter, Vvul YJ016

O=S(=O)(c1ccc(Br)s1)n1cccn1 [Qstatin, 1-((5-bromothiophen-2-yl)sulfonyl)-1H-pyrazole, reference compound]
Ka (SmcR [1]): 1.36e+06 M⁻¹ | ΔG (SmcR [1]): -35 kJ/mol and -35.00 kJ/mol | ΔH (SmcR [1]): -81.91 kJ/mol | ΔS (SmcR [1]): −157.30 J/mol · K | −TΔS (SmcR [1]): 46.91 kJ/mol | Kd (SmcR [1]; 25° C., read-out: Kd): 0.738 µM | IC50 ([2]; read-out: IC50, V. coralliilyticus OCN008, luxCDABE reporter plasmid): 3.6 µM | IC50 [2, 10]: 11.6 µM | IC50 [2, 11]: 22.2 µM | Inhibition of LuxR in the E. coli bioassay (in words) (V. campbellii LuxR [3]): inhibited LuxR activity | IC50 (V. campbellii LuxR [3]; Table 2, titration, 16 hours, read-out: Inhibition (IC50) of GFP production by LuxR in E. coli bioassay): 5 µM | IC50 (V. campbellii LuxR [3]; [12]): 5 to 10 µM and 10 to 20 µM | Off-target effects in the ΔsmcR strain (SmcR regulon; RNA-seq, ΔsmcR strain): no significant off-target effects | Overlap of Qstatin-treated regulon with the SmcR regulon (SmcR regulon; RNA-seq): more than 50% | Increase of smcR transcript levels (SmcR regulon; wild-type V. vulnificus): 2.5 fold | IC50 [4, 13]: 0.8 µM | IC50 ([4]; read-out: IC50, V. campbellii BB120, luxCDABE): 1.3 µM | IC50 [4, 14]: 4 µM | IC50 [4, 15]: 1.2 µM | Effect on SmcR DNA binding affinity (SmcR [5]): very little effect | IC50 ([6]; read-out: IC50, V. parahaemolyticus RIMD2210633, luxCDABE reporter plasmid): 2.8 µM | IC50 [6, 16]: 1.7 µM | IC50 [6, 17]: 3 µM | IC50 [6, 18]: 2.3 µM | IC50 ([7]; ATCC27562, read-out: IC50, V. vulnificus ATCC 27562, luxCDABE reporter plasmid): 0.4 µM | IC50 [7, 19]: 0.5 µM | IC50 [7, 20]: 2.1 µM | IC50 [7, 21]: 0.9 µM | Inhibition of pathogenesis in shrimp infection assay [8]: inhibits pathogenesis

O=S(=O)(c1ccc(Cl)s1)n1ccc(-c2ccccc2)n1 [Compound 10C, 1-((5-chlorothiophen-2-yl)sulfonyl)-3-phenyl-1H-pyrazole]
Growth rate or growth yield (V. campbellii): did not alter growth rate or growth yield | IC50 [2, 10]: 1.07 µM | IC50 [2, 11]: 2.42 µM | luxC transcripts (V. campbellii LuxR [9]; qRT-PCR, to levels in a ΔluxR strain): significantly decreased | 05222 transcripts (V. campbellii LuxR [9]; qRT-PCR, wild-type cultures): significantly increased | LuxR protein level (V. campbellii LuxR [9]; western blot, wild-type V. campbellii): visible increase | Inhibition of LuxR in the E. coli bioassay (in words) (V. campbellii LuxR [3]): most potent | IC50 (V. campbellii LuxR [3]; [12]): 1 to 2 µM | IC50 values lower than Qstatin (Vibrio strains): ~10 fold | Growth rate or growth yield (V. vulnificus): did not alter growth rate or growth yield | IC50 [4, 13]: 0.09 µM | IC50 [4, 14]: 0.71 µM | IC50 [4, 15]: 0.16 µM | IC50 [6, 16]: 1.04 µM | IC50 [6, 17]: 1.28 µM | IC50 [6, 18]: 0.68 µM | IC50 [7, 19]: 0.00075 µM | IC50 [7, 20]: 0.0605 µM | IC50 [7, 21]: 0.00546 µM
